Results on 19 compounds are retold here after US20210070748A1, “INHIBITORS OF BRUTONS TYROSINE KINASE” (Pharmacyclics LLC, priority 2015, published 2021).

SMILES strings stand for the structures. pIC50: −log10 of the molar value. Like-named read-outs stand apart in the source and are kept apart here. Bounds are passed on as bounds.

Common to all, as to assay type: biochemical
One assay has as its target T1, BTK-WT (Homo sapiens, UniProt Q06187).
T1 construct: purified from insect cells as a full-length construct containing an N-terminal 6X-His tag; His6 (N); made in house; host or cells: insect cells (baculovirus Sf21 in Method B)
Put plainly: Btk in vitro inhibitory activity (one of Method A TR-FRET, Method B electrophoretic mobility shift, Method C radiometric filter binding). As to conditions: read-out: IC50 BTK-WT.

The target of a further assay is SRC (Homo sapiens, UniProt P12931). Nature of the assay: Inhibition of a panel of kinases, in vitro HotSpot kinase assay: SRC. The protocol: (§1) The degree of inhibition of a panel of kinases is determined using the in vitro HotSpot kinase assay (purified enzymes, ^33P-ATP, an appropriate substrate and 1 μM ATP).
The next assay deals with T2, TEC (Homo sapiens, UniProt P42680).
T2 sequence (P42680 1-631): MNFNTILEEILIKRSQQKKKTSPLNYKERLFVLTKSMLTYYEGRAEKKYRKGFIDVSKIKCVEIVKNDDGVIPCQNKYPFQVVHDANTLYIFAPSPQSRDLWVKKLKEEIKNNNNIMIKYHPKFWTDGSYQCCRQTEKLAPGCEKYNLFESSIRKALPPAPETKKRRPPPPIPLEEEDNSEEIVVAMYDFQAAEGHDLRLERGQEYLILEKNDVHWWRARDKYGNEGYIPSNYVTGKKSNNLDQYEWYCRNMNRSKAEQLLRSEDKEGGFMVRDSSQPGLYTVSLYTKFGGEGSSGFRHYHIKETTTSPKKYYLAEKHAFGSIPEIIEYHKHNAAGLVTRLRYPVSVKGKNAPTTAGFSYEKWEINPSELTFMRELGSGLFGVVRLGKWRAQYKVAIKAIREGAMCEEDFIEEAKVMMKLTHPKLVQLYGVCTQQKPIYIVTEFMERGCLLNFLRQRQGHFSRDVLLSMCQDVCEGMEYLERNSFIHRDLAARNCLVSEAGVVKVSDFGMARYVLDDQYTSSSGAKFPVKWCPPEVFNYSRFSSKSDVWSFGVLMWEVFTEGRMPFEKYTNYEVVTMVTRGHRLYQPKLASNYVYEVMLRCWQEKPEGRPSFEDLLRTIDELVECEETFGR
Nature of the assay: Inhibition of a panel of kinases, in vitro HotSpot kinase assay: TEC. As for the experimental part:
as §1

[1] abbreviates: D-compounds panel data, 1 μM ATP.

T1 sequence (Q06187 whole entry): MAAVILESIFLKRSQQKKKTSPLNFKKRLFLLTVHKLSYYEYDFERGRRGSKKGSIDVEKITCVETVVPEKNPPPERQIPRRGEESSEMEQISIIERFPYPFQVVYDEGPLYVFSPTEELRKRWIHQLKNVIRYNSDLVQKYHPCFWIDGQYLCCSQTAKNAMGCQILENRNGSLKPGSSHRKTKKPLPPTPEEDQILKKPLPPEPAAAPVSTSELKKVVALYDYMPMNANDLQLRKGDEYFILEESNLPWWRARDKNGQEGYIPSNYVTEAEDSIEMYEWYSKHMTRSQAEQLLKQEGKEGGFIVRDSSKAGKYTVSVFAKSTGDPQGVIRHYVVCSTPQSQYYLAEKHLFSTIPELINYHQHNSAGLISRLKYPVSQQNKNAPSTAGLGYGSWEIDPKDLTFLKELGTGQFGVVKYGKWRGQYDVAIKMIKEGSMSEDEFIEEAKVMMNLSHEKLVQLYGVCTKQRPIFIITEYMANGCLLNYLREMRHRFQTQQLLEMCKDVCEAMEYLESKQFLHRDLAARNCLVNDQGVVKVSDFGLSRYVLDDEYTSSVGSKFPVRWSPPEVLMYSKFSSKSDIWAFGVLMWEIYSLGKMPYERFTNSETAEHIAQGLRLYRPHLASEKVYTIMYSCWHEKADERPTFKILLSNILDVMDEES
Chain of SRC (P12931 whole entry): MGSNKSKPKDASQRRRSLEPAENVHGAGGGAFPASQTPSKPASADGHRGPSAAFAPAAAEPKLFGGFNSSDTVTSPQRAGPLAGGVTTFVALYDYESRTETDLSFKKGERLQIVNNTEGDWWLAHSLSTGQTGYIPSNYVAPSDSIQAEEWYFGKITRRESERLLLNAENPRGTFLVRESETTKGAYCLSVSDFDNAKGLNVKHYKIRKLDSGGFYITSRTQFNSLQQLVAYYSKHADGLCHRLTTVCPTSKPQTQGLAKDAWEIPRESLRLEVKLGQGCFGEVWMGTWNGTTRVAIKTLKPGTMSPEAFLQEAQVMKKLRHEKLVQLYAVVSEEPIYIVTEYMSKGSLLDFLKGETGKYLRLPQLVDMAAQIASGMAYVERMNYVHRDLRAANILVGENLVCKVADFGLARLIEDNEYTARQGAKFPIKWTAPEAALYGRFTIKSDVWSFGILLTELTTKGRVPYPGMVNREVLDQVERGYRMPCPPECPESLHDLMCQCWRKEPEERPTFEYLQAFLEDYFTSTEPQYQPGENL

In general, pIC50 refers to the IC50 on a negative log10 scale, so that one unit is a factor of ten. In the case of `CN(C)C(=O)N1CC[C@@H]2[C@H]1CCCN2c1cnc(C(N)=O)c(Nc2cnn(C)c2)n1` (racemic) [Example D-50, (racemic)-cis-5-[1-(dimethylcarbamoyl)-octahydro-1H-pyrrolo[3,2-b]pyridin-4-yl]-3-[(1-methyl-1H-pyrazol-4-yl)amino]pyrazine-2-carboxamide], the results for the pIC50 on BTK-WT (D-compounds panel data), at SRC (setting [1]) and on TEC (setting [1]) were 7.00 to 8.00, 6.00 to 7.00 and 6.00 to 7.00, respectively.

Consider `C[C@@H]1[C@H](NC(=O)c2ccc(C3CC3)cc2)CCCN1c1cnc(C(N)=O)c(Nc2ccc(OC(F)(F)F)cc2)n1` [Example D-42, 5-[(2R,3R)-3-(4-cyclopropylbenzamido)-2-methylpiperidin-1-yl]-3-{[4-(trifluoromethoxy)phenyl]amino}pyrazine-2-carboxamide], for which the pIC50 on BTK-WT (D-compounds panel data) is 6.00 to 7.00; at SRC (setting [1]), below 5.00; on TEC (setting [1]), 6.00 to 7.00.

With `C[C@@H]1[C@H](NC(=O)c2ccc(C3CC3)cc2)CCCN1c1cnc(C(N)=O)c(Nc2cnn(CC3CCC(F)(F)CC3)c2)n1` [Example D-321, 5-[(2R,3R)-3-(4-cyclopropylbenzamido)-2-methylpiperidin-1-yl]-3-({1-[(4,4-difluorocyclohexyl)methyl]-1H-pyrazol-4-yl}amino)pyrazine-2-carboxamide], the pIC50 is 7.00 to 8.00 on BTK-WT (D-compounds panel data), 6.00 to 7.00 against SRC (setting [1]) and 7.00 to 8.00 at TEC (setting [1]).

On to `C[C@@H]1[C@H](NC(=O)C23CC(C2)C3)CCCN1c1cnc(C(N)=O)c(Nc2cnn(C)c2)n1` [Example D-90, 5-[(2R,3R)-3-{bicyclo[1.1.1]pentane-1-amido}-2-methylpiperidin-1-yl]-3-[(1-methyl-1H-pyrazol-4-yl)amino]pyrazine-2-carboxamide], for which the pIC50 is 7.00 to 8.00 at BTK-WT (D-compounds panel data), 6.00 to 7.00 at SRC (setting [1]) and 7.00 to 8.00 on TEC (setting [1]).

Regarding `Cc1cc(Nc2nc(N3CCC[C@@H](NC(=O)c4ccc(C5CC5)cc4F)C3)cnc2C(N)=O)on1` [Example D-2, 5-[(3R)-3-(4-cyclopropyl-2-fluorobenzamido)piperidin-1-yl]-3-[(3-methyl-1,2-oxazol-5-yl)amino]pyrazine-2-carboxamide], the pIC50 at BTK-WT (D-compounds panel data) is 6.00 to 7.00; on SRC (setting [1]), 5.00 to 6.00; on TEC (setting [1]), 5.00 to 6.00.

For `Cc1cc(Nc2nc(N3C[C@H](NC(=O)N(C)C)CC[C@@H]3C)cnc2C(N)=O)sn1` [Example D-74, 5-[(2S,5R)-5-[(dimethylcarbamoyl)amino]-2-methylpiperidin-1-yl]-3-[(3-methyl-1,2-thiazol-5-yl)amino]pyrazine-2-carboxamide], the pIC50 is 6.00 to 7.00 on BTK-WT (D-compounds panel data), 5.00 to 6.00 against SRC (setting [1]) and 5.00 to 6.00 at TEC (setting [1]).

For the compound `C[C@@H]1[C@H](NC(=O)c2ccc(C3CC3)cc2)CCCN1c1cnc(C(N)=O)c(Nc2ccc(N3CCN(C)CC3)c(C(F)(F)F)c2)n1` [Example D-92, 5-[(2R,3R)-3-(4-cyclopropylbenzamido)-2-methylpiperidin-1-yl]-3-{[4-(4-methylpiperazin-1-yl)-3-(trifluoromethyl)phenyl]amino}pyrazine-2-carboxamide], the pIC50 on BTK-WT (D-compounds panel data) is at least 8.00; at SRC (setting [1]) it was 6.00 to 7.00; at TEC (setting [1]), 7.00 to 8.00.

Turning to `Cn1cc(Nc2nc(N3CCC[C@H]4[C@@H]3CCCN4C(=O)c3ccc(C4CC4)cc3)cnc2C(N)=O)cn1` [Example D-47, 5-[(4aS,8aS)-5-(4-cyclopropylbenzoyl)-decahydro-1,5-naphthyridin-1-yl]-3-[(1-methyl-1H-pyrazol-4-yl)amino]pyrazine-2-carboxamide], the pIC50 at BTK-WT (D-compounds panel data), at SRC (setting [1]) and at TEC (setting [1]) was 5.00 to 6.00 throughout.

As to `C[C@@H]1[C@H](NC(=O)N(C)C)CCCN1c1cnc(C(N)=O)c(Nc2ccc(OC3CCN(C)CC3)cc2)n1` [Example D-33, 5-[(2R,3R)-3-[(dimethylcarbamoyl)amino]-2-methylpiperidin-1-yl]-3-({4-[(1-methylpiperidin-4-yl)oxy]phenyl}amino)pyrazine-2-carboxamide], the pIC50 at BTK-WT (D-compounds panel data) was at least 8.00; at SRC (setting [1]), 7.00 to 8.00; on TEC (setting [1]), 7.00 to 8.00.

With `C[C@@H]1[C@H](N2Cc3cc(Br)ccc3C2=O)CCCN1c1cnc(C(N)=O)c(Nc2cnn(C)c2)n1` [Example D-27, 5-[(2R,3R)-3-(5-bromo-1-oxo-2,3-dihydro-1H-isoindol-2-yl)-2-methylpiperidin-1-yl]-3-[(1-methyl-1H-pyrazol-4-yl)amino]pyrazine-2-carboxamide], the pIC50 on BTK-WT (D-compounds panel data) was at least 8.00; against SRC (setting [1]), 7.00 to 8.00; against TEC (setting [1]), at least 8.00.

On to `C=CC(=O)N1CC[C@@H](N(C)c2cnc(C(N)=O)c(Nc3ccc(C4(C)CCN(C5CC5)CC4)cc3)n2)C1` [Example E-104, (R)-5-((1-acryloylpyrrolidin-3-yl)(methyl)amino)-3-(4-(1-cyclopropyl-4-methylpiperidin-4-yl)phenylammo)pyrazine-2-carboxamide], for which the pIC50 is at least 8.00 on BTK-WT (E compounds, Table 17); 7.00 to 8.00 against SRC (E compounds, Table 17); at least 8.00 at TEC (E compounds, Table 17).

On to `C[C@@H]1[C@H](N2CCN(C)C2=O)CCCN1c1cnc(C(N)=O)c(Nc2cnn(C)c2)n1` [Example D-93, 3-[(1-methyl-1H-pyrazol-4-yl)amino]-5-[(2R,3R)-2-methyl-3-(3-methyl-2-oxoimidazolidin-1-yl)piperidin-1-yl]pyrazine-2-carboxamide], for which the pIC50 on BTK-WT (D-compounds panel data), at SRC (setting [1]) and on TEC (setting [1]) was 7.00 to 8.00 throughout.

On to `CN1CCN(C(=O)c2ccc(Nc3nc(N[C@H]4CC[C@H](NC(=O)c5ccc(C6CC6)cc5F)CC4)cnc3C(N)=O)cc2)CC1` [Example D-70, 3-{[4-(4-methylpiperazine-1-carbonyl)phenyl]amino}-5-{[(1 r,4r)-4-(4-cyclopropyl-2-fluorobenzamido)cyclohexyl]amino}pyrazine-2-carboxamide], for which the figures for the negative-log IC50 (pIC50) on BTK-WT (D-compounds panel data), at SRC (setting [1]) and on TEC (setting [1]) were 7.00 to 8.00, 6.00 to 7.00 and 6.00 to 7.00, respectively.

Consider `C[C@@H]1[C@H](NC(=O)c2ccc(N(C)C)cn2)CCCN1c1cnc(C(N)=O)c(Nc2cnn(C)c2)n1` [Example D-84, 5-[(2R,3R)-3-[5-(dimethylamino)pyridine-2-amido]-2-methylpiperidin-1-yl]-3-[(1-methyl-1H-pyrazol-4-yl)amino]pyrazine-2-carboxamide], for which the pIC50 on BTK-WT (D-compounds panel data) was at least 8.00; at SRC (setting [1]) it was 7.00 to 8.00; on TEC (setting [1]), at least 8.00.

For the compound `C[C@@H]1[C@H](NC(=O)c2ccc(C3CC3)cc2F)CCCN1c1cnc(C(N)=O)c(Nc2ccc(N3CCN(C)CC3)c(F)c2)n1` [Example D-82, 5-[(2R,3R)-3-(4-cyclopropyl-2-fluorobenzamido)-2-methylpiperidin-1-yl]-3-{[3-fluoro-4-(4-methylpiperazin-1-yl)phenyl]amino}pyrazine-2-carboxamide], the pIC50 was at least 8.00 on BTK-WT (D-compounds panel data), 7.00 to 8.00 on SRC (setting [1]) and 7.00 to 8.00 on TEC (setting [1]).

In the case of `CN1CCN(C(=O)c2ccc(Nc3nc(N[C@H]4CC[C@H](NC(=O)N(C)C)CC4)cnc3C(N)=O)cc2)CC1` [Example D-69, 3-{[4-(4-methylpiperazine-1-carbonyl)phenyl]amino}-5-{[(1 r,4r)-4-[(dimethylcarbamoyl)amino]cyclohexyl]amino}pyrazine-2-carboxamide], the negative-log IC50 (pIC50) on BTK-WT (D-compounds panel data) is 7.00 to 8.00; against SRC (setting [1]) it was 6.00 to 7.00; on TEC (setting [1]), 5.00 to 6.00.

For `C[C@@H]1[C@H](NC(=O)c2ccc(C(F)(F)F)nc2)CCCN1c1cnc(C(N)=O)c(Nc2cnn(C)c2)n1` [Example D-91, 3-[(1-methyl-1H-pyrazol-4-yl)amino]-5-[(2R,3R)-2-methyl-3-[6-(trifluoromethyl)pyridine-3-amido]piperidin-1-yl]pyrazine-2-carboxamide], the results for the pIC50 at BTK-WT (D-compounds panel data), against SRC (setting [1]) and against TEC (setting [1]) were at least 8.00, 7.00 to 8.00 and 7.00 to 8.00, respectively.

`Cn1cc(Nc2nc(N3CC[C@@H](O)[C@H](NC(=O)c4ccc(C5CC5)cc4)C3)cnc2C(N)=O)cn1` (racemic) [Example D-26, (racemic)-trans-5-[3-(4-cyclopropylbenzamido)-4-hydroxypiperidin-1-yl]-3-[(1-methyl-1H-pyrazol-4-yl)amino]pyrazine-2-carboxamide]: the figures for the pIC50 at BTK-WT (D-compounds panel data), against SRC (setting [1]) and against TEC (setting [1]) were 7.00 to 8.00, 5.00 to 6.00 and 6.00 to 7.00, respectively.

Take `C[C@@H]1[C@H](NC(=O)c2cnc(C3CC3)nc2)CCCN1c1cnc(C(N)=O)c(Nc2cnn(C)c2)n1` [Example D-86, 5-[(2R,3R)-3-(2-cyclopropylpyrimidine-5-amido)-2-methylpiperidin-1-yl]-3-[(1-methyl-1H-pyrazol-4-yl)amino]pyrazine-2-carboxamide]: the pIC50 was at least 8.00 at BTK-WT (D-compounds panel data), 7.00 to 8.00 against SRC (setting [1]) and at least 8.00 at TEC (setting [1]).
